In patent USRE47193E1, “Selectively substituted quinoline compounds” (EISAI R&D MANAGEMENT CO., LTD., priority 2013, dated 2019):
Values belong to the molecule of their own block, whether it stands above or below them.

Columns and labels:
Human TLR7/8 = assay: Human PBMC cell-based assay, TLR7/8 stimulus (RNA-Ig), cytokine ELISA; details: primary human PBMC assay, TLR7/8 potency; ligand not given; read-out: Human PBMCs IC50
Method: Human PBMC Cell-Based Assay. Human peripheral blood mononuclear cells (PBMC) were isolated from freshly-drawn heparinized (10 USP units/ml, Hospira, Lakeforest, Ill.) healthy donor whole blood by density gradient (Histopaque® 1077, Sigma, Inc., St. Louis, Mo.). Briefly, 25 ml blood was diluted with 15 ml PBS (without Ca^2+, Mg^2+) in a 50 ml conical tube, and 12 ml Histopaque was underlaid using a spinal needle. Tubes were centrifuged for 45 minutes at 1200 rpm (350×g), and PBMC were collected from the buffy coat. Cells were then washed twice in PBS, and red blood cells were lysed by suspension in 5 ml ammonium chloride solution (1× Red Blood Cell Lysis Buffer, eBioscience) for 5 minutes at room temperature. After a final wash in PBS, PBMC were resuspended at a final concentration of 2×10^6/ml in RPMI-1640 media with L-glutamine (Invitrogen) and supplemented with 25 mM HEPES (Mediatech, Inc, Manassas Va.), 10% fetal bovine serum (HyClone, Logan, Utah), and Penicillin-Streptomycin-Glutamine (Mediatech) and plated at 100 ul/well (2×10^5 cells/well) in tissue culture treated 96-well plates (Falcon).
Antagonist compounds solubilized and serial diluted in 100% DMSO were added in triplicate to cells to yield a final concentration of 0.1% DMSO (v/v). Hydroxychloroquine (Acros Organics) solubilized and serial diluted in PBS was added in triplicate to cells. PBMC were incubated with antagonist compounds or HCQ for 30 minutes at 37° C., 5% CO2 before adding various TLR agonist reagents in 100 ul complete media per well as follows (final concentrations indicated): R848 (Resiquimod; GLSynthesis, Worcester, Mass.) at 1 uM for TLR7 and TLR8, LPS (Sigma) at 10 ng/ml for TLR4, and CpG-2216 (InvivoGen) at 5 ug/ml for TLR9. To prepare a TLR7/8 agonist that mimics RNA-containing auto-antibody immune complexes in lupus patients, a 26-mer RNA with a sequence derived from human U1 snRNA stem loop IV [(sequence: […]-[…] (SEQ ID NO: 2) with phosphorothioate backbone] was synthesized (Dharmacon, Inc., Lafayette, Colo.), which has been shown previously to be a potent TLR7 and TLR8 agonist. This RNA molecule was diluted to 2.5 μM in serum-free RPMI, and mouse anti-human single stranded DNA monoclonal antibody (MAB3034, Millipore, Inc., Billerica, Mass.), which also cross-reacts with RNA, was added at a 1:25 dilution or at 1 ug/ml. The resulting “RNA-Ig” stimulus was incubated at room temperature for 15-30 minutes before adding to cells. PBMC were incubated with the various TLR agonists for 20 hours at 37° C., 5% CO2. Cell culture supernatants were collected, and levels of various human cytokines were assessed as indicated by standard ELISA procedure according to the manufacturer's recommended protocol (BD Biosciences, Inc., San Diego, Calif.). In a subsequent assay (Table 6) the ability of ER-899742 to block stimulation of normal PBMC by various TLR7/8 ligands, but not DNA-mediated activation of TLR9, was examined. In this assay cells were plated at 1×10^5 cells/well in 100 ul in 96-well plates.

mouse TLR7 = biological target: T1, mouse TLR7 (Mus musculus, UniProt P58681); assay: Short-term in vivo (STIV) assay: oral dosing, R848 s.c., plasma IL-6; set-up: female BALB/c mice (Jackson Labs, Bar Harbor, Me.) were dosed by oral gavage; tissue Jackson Labs; host or cells: living female BALB/c mice; plasma IL-6 after s.c. R848
T1 sequence (P58681 27-1050): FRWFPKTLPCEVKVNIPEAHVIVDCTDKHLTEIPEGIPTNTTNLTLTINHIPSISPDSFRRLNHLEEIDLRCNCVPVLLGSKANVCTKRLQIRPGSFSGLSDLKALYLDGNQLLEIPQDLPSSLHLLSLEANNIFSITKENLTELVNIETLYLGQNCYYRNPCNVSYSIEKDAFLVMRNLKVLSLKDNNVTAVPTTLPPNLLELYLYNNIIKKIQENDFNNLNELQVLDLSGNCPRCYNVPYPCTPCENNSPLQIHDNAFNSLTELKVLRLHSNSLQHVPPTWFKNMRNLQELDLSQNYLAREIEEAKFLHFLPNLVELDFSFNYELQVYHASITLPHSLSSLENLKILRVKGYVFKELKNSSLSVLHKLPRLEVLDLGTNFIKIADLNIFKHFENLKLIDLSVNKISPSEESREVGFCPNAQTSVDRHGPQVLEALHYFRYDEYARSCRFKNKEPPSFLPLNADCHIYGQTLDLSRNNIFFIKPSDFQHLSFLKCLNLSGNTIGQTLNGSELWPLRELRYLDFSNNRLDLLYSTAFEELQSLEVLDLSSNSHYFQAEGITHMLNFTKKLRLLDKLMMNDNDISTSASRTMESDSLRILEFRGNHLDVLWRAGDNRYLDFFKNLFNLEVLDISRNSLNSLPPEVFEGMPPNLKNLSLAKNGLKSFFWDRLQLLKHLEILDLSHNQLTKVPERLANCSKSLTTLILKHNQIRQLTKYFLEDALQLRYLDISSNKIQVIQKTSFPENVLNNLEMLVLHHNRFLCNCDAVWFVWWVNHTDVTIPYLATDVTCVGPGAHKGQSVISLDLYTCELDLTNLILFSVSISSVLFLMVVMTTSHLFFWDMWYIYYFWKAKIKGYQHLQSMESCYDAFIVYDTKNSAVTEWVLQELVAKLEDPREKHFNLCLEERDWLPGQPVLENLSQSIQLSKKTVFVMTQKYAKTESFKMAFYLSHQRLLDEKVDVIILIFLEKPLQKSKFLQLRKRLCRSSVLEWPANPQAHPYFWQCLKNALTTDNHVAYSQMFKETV
Method: Figure Legend: Female BALB/c mice were dosed by oral gavage with Vehicle alone (0.5% aqueous methyl-cellulose) or compound formulated in Vehicle at 33 mg/kg, 100 mg/kg or 300 mg/kg. […] (FIG. 1A).
Short-term in vivo (STIV) assay: To assess compound potency in vivo against mouse TLR7, a short-term in vivo (STIV) assay was utilized. Briefly, mice were orally dosed with compounds and at various time points afterwards were injected subcutaneously with agonist R848 to stimulate TLR7. The plasma IL-6 level following R848 stimulation was then measured by ELISA to assess compound potency and duration-of-action.
Short-term in vivo (STIV) assay. Six to eight week old female BALB/c mice (Jackson Labs, Bar Harbor, Me.) were dosed by oral gavage in 200 ul volume with antagonist compounds formulated in 0.5% aqueous methyl-cellulose (Sigma, St. Louis, Mo.). At various time points afterwards, mice were injected subcutaneously (s.c.) in 100 ul volume with 15 ug R848 (Resiquimod; GLSynthesis, Worcester, Mass.) to stimulate TLR7.

SMILES: CC1CN(c2ccc(C#N)c3ncccc23)CC(CNc2ncccn2)O1 (stereo not drawn) [ER-886787]
IC50 (Human TLR7/8): 0.076 µM

SMILES: C[C@@H]1CN(c2ccc(C#N)c3ncccc23)C[C@H](CNc2ccccn2)O1 [ER-886788]
% Suppression vs. Vehicle (mouse TLR7; 3 h, 33 mg/kg): 0% | % Suppression vs. Vehicle (mouse TLR7; 3 h, 100 mg/kg): 0% | % Suppression vs. Vehicle (mouse TLR7; 3 h, 300 mg/kg): 24% | % Suppression vs. Vehicle (mouse TLR7; 6 h, 33 mg/kg): 0% | % Suppression vs. Vehicle (mouse TLR7; 6 h, 100 mg/kg): 27% | % Suppression vs. Vehicle (mouse TLR7; 6 h, 300 mg/kg): 26% | % Suppression vs. Vehicle (mouse TLR7; 19 h, 33 mg/kg): 0% | % Suppression vs. Vehicle (mouse TLR7; 19 h, 100 mg/kg): 17% | % Suppression vs. Vehicle (mouse TLR7; 19 h, 300 mg/kg): 2%

SMILES: Cc1ccnc(NCC2CN(c3ccc(C#N)c4ncccc34)CC(C)O2)c1 (stereo not drawn) [ER-886853]
IC50 (Human TLR7/8): 0.004 µM

SMILES: COc1ccc(NC[C@H]2CN(c3ccc(C#N)c4ncccc34)C[C@@H](C)O2)nc1 [ER-886855]
IC50 (Human TLR7/8): 0.034 µM

SMILES: CC1CN(c2ccc(C#N)c3ncccc23)CC(CN2CCCC2C)O1 (stereo not drawn) [ER-886856]
IC50 (Human TLR7/8): 0.111 µM

SMILES: COc1cccc(NC[C@H]2CN(c3ccc(C#N)c4ncccc34)C[C@@H](C)O2)n1 [ER-886859]
IC50 (Human TLR7/8): 0.107 µM

SMILES: C[C@@H]1CN(c2ccc(C#N)c3ncccc23)C[C@H](CNc2ccnn2-c2ccccc2)O1 [ER-886860]
IC50 (Human TLR7/8): 0.24 µM

SMILES: CC1CN(c2ccc(C#N)c3ncccc23)CC(CN2CCCC2CO)O1 (stereo not drawn) [ER-886866]
IC50 (Human TLR7/8): 0.05 µM

SMILES: C[C@@H]1CN(c2ccc(C#N)c3ncccc23)C[C@H](CN2CC[C@@H](O)C2)O1 [ER-886867]
IC50 (Human TLR7/8): 0.034 µM

SMILES: COc1cccnc1NC[C@H]1CN(c2ccc(C#N)c3ncccc23)C[C@@H](C)O1 [ER-886948]
% Suppression vs. Vehicle (mouse TLR7; 3 h, 33 mg/kg): 46% | % Suppression vs. Vehicle (mouse TLR7; 3 h, 100 mg/kg): 89% | % Suppression vs. Vehicle (mouse TLR7; 3 h, 300 mg/kg): 100% | % Suppression vs. Vehicle (mouse TLR7; 6 h, 33 mg/kg): 35% | % Suppression vs. Vehicle (mouse TLR7; 6 h, 100 mg/kg): 44% | % Suppression vs. Vehicle (mouse TLR7; 6 h, 300 mg/kg): 81% | % Suppression vs. Vehicle (mouse TLR7; 19 h, 33 mg/kg): 0% | % Suppression vs. Vehicle (mouse TLR7; 19 h, 100 mg/kg): 5% | % Suppression vs. Vehicle (mouse TLR7; 19 h, 300 mg/kg): 49%

SMILES: C[C@@H]1CN(c2ccc(C#N)c3ncccc23)C[C@H](CN2CCC(C(N)=O)CC2)O1 [ER-888320]
% Suppression vs. Vehicle (mouse TLR7; 3 h, 100 mg/kg): 100% | % Suppression vs. Vehicle (mouse TLR7; 6 h, 33 mg/kg): 78% | % Suppression vs. Vehicle (mouse TLR7; 6 h, 100 mg/kg): 94% | % Suppression vs. Vehicle (mouse TLR7; 13 h, 33 mg/kg): 9% | % Suppression vs. Vehicle (mouse TLR7; 13 h, 100 mg/kg): 31%

% Suppression vs. Vehicle (mouse TLR7; 3 h, 33 mg/kg): 93% | % Suppression vs. Vehicle (mouse TLR7; 3 h, 100 mg/kg): 99% | % Suppression vs. Vehicle (mouse TLR7; 6 h, 33 mg/kg): 82% | % Suppression vs. Vehicle (mouse TLR7; 6 h, 100 mg/kg): 99% | % Suppression vs. Vehicle (mouse TLR7; 19 h, 100 mg/kg): 88%
SMILES: C[C@@H]1CN(c2ccc(C#N)c3ncccc23)C[C@H](CN2CCC(N3CCN(C)CC3)CC2)O1 [ER-890223]

SMILES: CC(C)C(=O)NC1CN(C[C@H]2CN(c3ccc(C#N)c4ncccc34)C[C@@H](C)O2)C1 [ER-894206]
% Suppression vs. Vehicle (mouse TLR7; 3 h, 33 mg/kg): 96% | % Suppression vs. Vehicle (mouse TLR7; 6 h, 33 mg/kg): 85% | % Suppression vs. Vehicle (mouse TLR7; 6 h, 100 mg/kg): 98% | % Suppression vs. Vehicle (mouse TLR7; 13 h, 33 mg/kg): 42% | % Suppression vs. Vehicle (mouse TLR7; 13 h, 100 mg/kg): 77%

SMILES: C[C@@H]1CN(c2ccc(C#N)c3ncccc23)C[C@H](C(=O)NC2(C)CCNCC2)O1 [ER-899718]
% Suppression vs. Vehicle (mouse TLR7; 6 h, 100 mg/kg): 74% | % Suppression vs. Vehicle (mouse TLR7; 13 h, 100 mg/kg): 51%

SMILES: C[C@@H]1CN(c2ccc(C#N)c3ncccc23)C[C@H](C(=O)NC2(C)CCN(C)CC2)O1 [ER-899835]
% Suppression vs. Vehicle (mouse TLR7; 6 h, 100 mg/kg): 99% | % Suppression vs. Vehicle (mouse TLR7; 13 h, 100 mg/kg): 79%
